Assay results reported in patent US7320984B2, “Remedies or preventives for urinary frequency or urinary incontinence and morphinan derivatives having nitrogen-containing heterocyclic group” (Toray Industries, Inc., priority 2002, dated 2008).

Test system: rhythmic bladder contractions in rats
Assay: Inhibitory effect against rhythmic bladder contractions in rats
Assay type: in vivo
Details: anesthetized female SD rats, intravenous
Description: Inhibitory Effect Against Rhythmic Bladder Contractions in Rats
Female SD rats were anesthetized with an intraperitoneal administration of urethane (1.0 g/kg). A polyethylene tube was inserted from the urethra to the bladder and the tube was fixed by ligation. Then physiological saline was appropriately infused (infusion rate: about 0.2 ml/min., maximum: about 1.5 ml/animal) through the tube to cause rhythmic bladder contractions. The rhythmic bladder contractions were monitored by measuring the intravesical pressure through a polyethylene tube inserted into the bladder. After confirming that stable rhythmic bladder contractions occurred at least 10 times, a vehicle containing a prescribed dose of a test compound was intravenously administration at a dose of 1 ml/kg. In cases where the intravesical pressure, within 10 minutes after the administration of the test compound, decreased to 50% or less of the intravesical pressure immediately […] the administration, the test compound was judged as having inhibitory effect against urinary bladder contractions, and the time period until the intravesical pressure returned to more than 50% was defined as inhibitory time of rhythmic bladder contractions. As the vehicle for administration, physiological saline was used for test compounds 4, 7, 8, 9, 10, 13, 29, 30, 31, 33, 34, 75, 76, 79, 80, 81, 82, 84, 89, 90, 91, 93, 94, 95, 110 and 111, aqueous 10% dimethylsulfoxide (DMSO) solution was used for test compounds 11, 12, 14, 15, 16, 17, 18, 20, 21, 23, 28, 46, 47, 50, 55, 56, 57, 58, 59, 60, 61, 62, 63, 64, 65, 66, 68, 69, 70, 71, 72, 73, 74, 77, 78, 83, 85, 86, 87, 88, 92, 96, 97, 98, 99, 100, […], 103, 104, 105, 106, 107, 108 and […], aqueous 20% dimethylsulfoxide (DMSO) solution was used for test compounds 1, 2, 67 and 101, and aqueous 5% xylitol solution was used for test compounds 5 and 35. The aqueous 10% DMSO solution, aqueous 20% DMSO solution and the aqueous 5% xylitol solution per se, which may influence on the inhibitory time of rhythmic bladder contractions, were also tested at a dose of 1 ml/kg. With any of the compounds, prolongation of the inhibitory time of rhythmic bladder contractions was observed when compared with that obtained in the group to which the vehicle alone was administered.

SMILES | Mean Inhibitory Time of Rhythmic Bladder Contractions (dose 0.1 mg/kg body weight) | other results
CC1=C(C)C(=O)N([C@@H]2CC[C@@]3(O)[C@H]4Cc5ccc(O)c6c5[C@@]3(CCN4CC3CC3)[C@H]2O6)C1=O [Compound 75, N-(17-cyclopropylmethyl-4,5α-epoxy-3,14-dihydroxy-morphinan-6β-yl)-2,3-dimethyl-maleimide] | 20.2 min | –
CC1=C(C)C(=O)N([C@H]2CC[C@@]3(O)[C@H]4Cc5ccc(O)c6c5[C@@]3(CCN4CC3CC3)[C@H]2O6)C1=O [Compound 76, N-(17-cyclopropylmethyl-4,5α-epoxy-3,14-dihydroxy-morphinan-6α-yl)-2,3-dimethyl-maleimide] | – | Mean Inhibitory Time of Rhythmic Bladder Contractions (dose 0.01 mg/kg body weight): 16.7 min
O=C1C2=C(CCCC2)C(=O)N1[C@@H]1CC[C@@]2(O)[C@H]3Cc4ccc(O)c5c4[C@@]2(CCN3CC2CC2)[C@H]1O5 [Compound 77, N-(17-cyclopropylmethyl-4,5α-epoxy-3,14-dihydroxy-morphinan-6β-yl)-3,4,5,6-tetrahydrophthalimide] | – | Mean Inhibitory Time of Rhythmic Bladder Contractions (dose 0.01 mg/kg body weight): 16.6 min
O=C1[C@H]2CC=CC[C@H]2C(=O)N1[C@@H]1CC[C@@]2(O)[C@H]3Cc4ccc(O)c5c4[C@@]2(CCN3CC2CC2)[C@H]1O5 [Compound 78, N-(17-cyclopropylmethyl-4,5α-epoxy-3,14-dihydroxy-morphinan-6β-yl)-cis-1,2,3,6-tetrahydrophthalimide] | 13.4 min | –
O=C1[C@H]2C[C@H]2C(=O)N1[C@@H]1CC[C@@]2(O)[C@H]3Cc4ccc(O)c5c4[C@@]2(CCN3CC2CC2)[C@H]1O5 [Compound 79, N-(17-cyclopropylmethyl-4,5α-epoxy-3,14-dihydroxy-morphinan-6β-yl)-1,2-cyclopropanedicarboimide] | 2.1 min | –
O=C1c2cccnc2C(=O)N1[C@@H]1CC[C@@]2(O)[C@H]3Cc4ccc(O)c5c4[C@@]2(CCN3CC2CC2)[C@H]1O5 [Compound 80, N-(17-cyclopropylmethyl-4,5α-epoxy-3,14-dihydroxy-morphinan-6β-yl)-2,3-pyridinedicarboimide] | 1.1 min | –
O=C1c2cccc(F)c2CN1[C@@H]1CC[C@@]2(O)[C@H]3Cc4ccc(O)c5c4[C@@]2(CCN3CC2CC2)[C@H]1O5 [Compound 81, 2-(17-cyclopropylmethyl-4,5α-epoxy-3,14-dihydroxy-morphinan-6β-yl)-4-fluoro-2,3-dihydro-isoindol-1-one] | – | Mean Inhibitory Time of Rhythmic Bladder Contractions (dose 0.03 mg/kg body weight): 16.1 min
O=C1c2cc(F)ccc2CN1[C@@H]1CC[C@@]2(O)[C@H]3Cc4ccc(O)c5c4[C@@]2(CCN3CC2CC2)[C@H]1O5 [Compound 82, 2-(17-cyclopropylmethyl-4,5α-epoxy-3,14-dihydroxy-morphinan-6β-yl)-6-fluoro-2,3-dihydro-isoindol-1-one] | – | Mean Inhibitory Time of Rhythmic Bladder Contractions (dose 0.03 mg/kg body weight): 19.9 min
O=C1C2=C(CCCC2)CN1[C@@H]1CC[C@@]2(O)[C@H]3Cc4ccc(O)c5c4[C@@]2(CCN3CC2CC2)[C@H]1O5 [Compound 83, 2-(17-cyclopropylmethyl-4,5α-epoxy-3,14-dihydroxy-morphinan-6β-yl)-2,3,4,5,6,7-hexahydro-isoindol-1-one] | 10.6 min | –
C=CCN1CC[C@]23c4c5ccc(O)c4O[C@H]2[C@H](N2CC4=C(CCCC4)C2=O)CC[C@@]3(O)[C@H]1C5 [Compound 84, 2-(17-allyl-4,5α-epoxy-3,14-dihydroxy-morphinan-6-yl)-2,3,4,5,6,7-hexahydro-isoindol-1-one] | 9.3 min | –
C=CCN1CC[C@]23c4c5ccc(O)c4O[C@H]2[C@@H](N2CC4=C(CCCC4)C2=O)CC[C@@]3(O)[C@H]1C5 [Compound 85, 2-(17-allyl-4,5α-epoxy-3,14-dihydroxy-morphinan-6α-yl)-2,3,4,5,6,7-hexahydro-isoindol-1-one] | 6.9 min | –
C=CCN1CC[C@]23c4c5ccc(O)c4O[C@H]2[C@H](N2Cc4ccccc4C2=O)CC[C@@]3(O)[C@H]1C5 [Compound 86, 2-(17-allyl-4,5α-epoxy-3,14-dihydroxy-morphinan-6β-yl)-2,3-dihydro-isoindol-1-one] | 12.1 min | –
C=CCN1CC[C@]23c4c5ccc(O)c4O[C@H]2[C@@H](N2Cc4ccccc4C2=O)CC[C@@]3(O)[C@H]1C5 [Compound 87, 2-(17-allyl-4,5α-epoxy-3,14-dihydroxy-morphinan-6α-yl)-2,3-dihydro-isoindol-1-one] | 6.4 min | –
C=CCN1CC[C@]23c4c5ccc(O)c4O[C@H]2[C@H](N2Cc4cccc(F)c4C2=O)CC[C@@]3(O)[C@H]1C5 [Compound 88, 2-(17-allyl-4,5α-epoxy-3,14-dihydroxy-morphinan-6β-yl)-7-fluoro-2,3-dihydro-isoindol-1-one] | – | Mean Inhibitory Time of Rhythmic Bladder Contractions (dose 0.03 mg/kg body weight): 10.7 min
C=CCN1CC[C@]23c4c5ccc(O)c4O[C@H]2[C@H](N2Cc4c(F)cccc4C2=O)CC[C@@]3(O)[C@H]1C5 [Compound 89, 2-(17-allyl-4,5α-epoxy-3,14-dihydroxy-morphinan-6β-yl)-4-fluoro-2,3-dihydro-isoindol-1-one] | 12.5 min | –
C=CCN1CC[C@]23c4c5ccc(O)c4O[C@H]2[C@H](N2Cc4ccc(F)cc4C2=O)CC[C@@]3(O)[C@H]1C5 [Compound 90, 2-(17-allyl-4,5α-epoxy-3,14-dihydroxy-morphinan-6β-yl)-6-fluoro-2,3-dihydro-isoindol-1-one] | 17.6 min | –
CC(=O)O[C@@]12CC[C@@H](N3C(=O)c4ccccc4C3=O)[C@@H]3Oc4c(O)ccc5c4[C@@]31CCN(CC1CC1)[C@@H]2C5 [Compound 91, N-(14-acetoxy-17-cyclopropylmethyl-4,5α-epoxy-3-hydroxymorphinan-6β-yl)-phthalimide] | – | Mean Inhibitory Time of Rhythmic Bladder Contractions (dose 0.03 mg/kg body weight): 14.7 min
C=CCN1CC[C@]23c4c5ccc(O)c4O[C@H]2[C@H](N2C(=O)c4ccccc4C2=O)CC[C@@]3(OC(C)=O)[C@H]1C5 [Compound 92, N-(14-acetoxy-17-allyl-4,5α-epoxy-3-hydroxymorphinan-6β-yl)-phthalimide] | 16.0 min | –
CC(=O)O[C@@]12CC[C@@H](N3CC4=C(CCCC4)C3=O)[C@@H]3Oc4c(O)ccc5c4[C@@]31CCN(CC1CC1)[C@@H]2C5 [Compound 93, N-(14-acetoxy-17-cyclopropylmethyl-4,5α-epoxy-3-hydroxymorphinan-6β-yl)-2,3,4,5,6,7-hexahydro-isoindol-1-one] | 16.0 min | –
CCCN1CC[C@]23c4c5ccc(O)c4O[C@H]2[C@H](N2C(=O)c4ccccc4C2=O)CC[C@@]3(O)[C@H]1C5 [Compound 94, N-(4,5α-epoxy-3,14-dihydroxy-17-propyl-morphinan-6β-yl)-phthalimide] | 11.9 min | –
CN1CC[C@]23c4c5ccc(O)c4O[C@H]2[C@H](N2C(=O)c4ccccc4C2=O)CC[C@H]3[C@H]1C5 [Compound 95, N-(4,5α-epoxy-3-hydroxy-17-methyl-morphinan-6β-yl)-phthalimide] | 15.0 min | –
O=C1c2cccc(O)c2C(=O)N1[C@@H]1CC[C@@]2(O)[C@H]3Cc4ccc(O)c5c4[C@@]2(CCN3CC2CC2)[C@H]1O5 [Compound 96, N-(17-cyclopropylmethyl-4,5α-epoxy-3,14-dihydroxy-morphinan-6β-yl)-3-hydroxy-phthalimide] | 12.9 min | –
Nc1cccc2c1C(=O)N([C@@H]1CC[C@@]3(O)[C@H]4Cc5ccc(O)c6c5[C@@]3(CCN4CC3CC3)[C@H]1O6)C2=O [Compound 97, N-(17-cyclopropylmethyl-4,5α-epoxy-3,14-dihydroxy-morphinan-6β-yl)-3-amino-phthalimide] | 11.2 min | –
Nc1ccc2c(c1)C(=O)N([C@@H]1CC[C@@]3(O)[C@H]4Cc5ccc(O)c6c5[C@@]3(CCN4CC3CC3)[C@H]1O6)C2=O [Compound 98, N-(17-cyclopropylmethyl-4,5α-epoxy-3,14-dihydroxy-morphinan-6β-yl)-4-amino-phthalimide] | 7.2 min | –
C=CCN1CC[C@]23c4c5ccc(O)c4O[C@H]2[C@H](N2C(=O)c4ccc(N)cc4C2=O)CC[C@@]3(O)[C@H]1C5 [Compound 99, N-(17-allyl-4,5α-epoxy-3,14-dihydroxy-morphinan-6β-yl)-4-amino-phthalimide] | 16.9 min | –
C=CCN1CC[C@]23c4c5ccc(O)c4O[C@H]2[C@H](N2C(=O)c4cccc(N)c4C2=O)CC[C@@]3(O)[C@H]1C5 [Compound 100, N-(17-allyl-4,5α-epoxy-3,14-dihydroxy-morphinan-6β-yl)-3-amino-phthalimide] | 14.0 min | –
